Experimental data from US20230399319A1, “Acylsulfamide Compound and Pharmaceutical Use Therefor” (Japan Tobacco Inc., priority 2019, published 2023).
Where two headings read alike, the source gives them in different places.

Biological target: NLRP3 inflammasome (Homo sapiens (Human), UniProt Q96P20)
Test: Evaluation of NLRP3 inflammasome inhibitory activity (inhibition of IL-1β production in THP1-Null cells, LPS/Nigericin)

NLRP3 inflammasome, sequence (Q96P20 whole entry): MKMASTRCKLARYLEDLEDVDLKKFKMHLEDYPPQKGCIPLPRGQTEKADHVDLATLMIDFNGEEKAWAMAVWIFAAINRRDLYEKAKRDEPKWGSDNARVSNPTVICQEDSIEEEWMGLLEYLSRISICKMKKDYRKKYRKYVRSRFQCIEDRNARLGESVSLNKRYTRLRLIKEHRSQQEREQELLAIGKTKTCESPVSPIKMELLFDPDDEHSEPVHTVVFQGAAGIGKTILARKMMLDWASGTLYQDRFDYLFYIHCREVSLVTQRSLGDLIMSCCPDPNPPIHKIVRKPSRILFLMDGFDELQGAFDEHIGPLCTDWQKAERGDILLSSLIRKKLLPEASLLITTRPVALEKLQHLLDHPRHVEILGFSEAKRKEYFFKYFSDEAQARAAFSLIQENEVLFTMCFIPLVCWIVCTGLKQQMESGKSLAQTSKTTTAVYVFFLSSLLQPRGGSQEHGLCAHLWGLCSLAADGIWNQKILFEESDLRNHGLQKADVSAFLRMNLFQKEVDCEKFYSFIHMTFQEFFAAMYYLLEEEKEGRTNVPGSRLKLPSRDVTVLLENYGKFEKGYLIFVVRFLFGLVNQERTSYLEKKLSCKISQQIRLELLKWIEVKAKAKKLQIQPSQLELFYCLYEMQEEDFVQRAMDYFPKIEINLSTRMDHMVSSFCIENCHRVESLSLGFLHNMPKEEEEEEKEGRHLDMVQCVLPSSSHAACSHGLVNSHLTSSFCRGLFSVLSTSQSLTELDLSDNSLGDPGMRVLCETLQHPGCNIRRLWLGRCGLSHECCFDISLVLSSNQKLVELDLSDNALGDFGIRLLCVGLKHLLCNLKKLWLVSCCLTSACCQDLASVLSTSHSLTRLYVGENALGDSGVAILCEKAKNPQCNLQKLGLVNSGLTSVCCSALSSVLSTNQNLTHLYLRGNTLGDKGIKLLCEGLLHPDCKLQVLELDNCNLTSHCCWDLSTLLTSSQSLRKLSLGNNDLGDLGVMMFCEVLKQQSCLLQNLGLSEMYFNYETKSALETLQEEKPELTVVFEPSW

Molecule | IC50 [µM] | IC50 (IL-1β production in THP1-Null cells, PMA/LPS primed, Nigericin 7.5 μmol/L) [µM]
2-((8-chloro-1,2,3,5,6,7-hexahydro-s-indacen-4-yl)amino)-N—(N,N-dimethylsulfamoyl)oxazole-4-carboxamide [Example 23] | – | < 0.03
Cc1ccc(C2CC2)cc1Nc1nc(C(=O)NS(=O)(=O)N2CCC(O)C2)co1 (racemic) [Example 2-002] | 0.16 | –
Cc1ccc(C(F)(F)F)cc1Nc1nc(C(=O)NS(=O)(=O)N2CCOCC2CO)co1 (racemic) [Example 2-045] | 0.18 | –
COC(C)c1ccc(C)c(Nc2nc(C(=O)NS(=O)(=O)N(C)C)co2)c1 (racemic) [Example 2-061] | 0.57 | –
COC1COCCN(S(=O)(=O)NC(=O)c2coc(Nc3cc(C(F)(F)F)ccc3C)n2)C1 (racemic) [Example 2-076] | 0.025 | –
CCC1COCCN1S(=O)(=O)NC(=O)c1coc(Nc2cc(C(C)C)ccc2C)n1 (racemic) [Example 2-082] | 0.16 | –
COCC1CN(S(=O)(=O)NC(=O)c2coc(Nc3cc(C(F)(F)F)ccc3C)n2)CCCO1 (racemic) [Example 2-091] | 0.038 | –
Cc1ccc(C(F)(F)F)cc1Nc1nc(C(=O)NS(=O)(=O)N2CCOCC(C)C2)co1 (racemic) [Example 2-092] | 0.022 | –
Cc1ccc(C(F)(F)F)cc1Nc1nc(C(=O)NS(=O)(=O)N2CCOCC(C(=O)N(C)C)C2)co1 (racemic) [Example 2-143] | 0.086 | –
COC1CCCN(S(=O)(=O)NC(=O)c2coc(Nc3cc(C(F)(F)F)ccc3C)n2)CC1 (racemic) [Example 2-148] | 0.04 | –
COC1CCCN(S(=O)(=O)NC(=O)c2coc(Nc3cc(C(F)(F)F)ccc3C)n2)C1 (racemic) [Example 2-159] | 0.061 | –
CC(C)c1cn(C(C)C)nc1Nc1nc(C(=O)NS(=O)(=O)N2CCOCCC2C)co1 (racemic) [Example 2-184] | 0.14 | –
CCCCS(=O)(=O)N1CCN(S(=O)(=O)NC(=O)c2coc(Nc3cc(C(F)(F)F)ccc3C)n2)CC(F)C1 (racemic) [Example 2-197] | 0.017 | –
CCCCS(=O)(=O)N1CCN(S(=O)(=O)NC(=O)c2coc(Nc3cc(C(F)(F)F)ccc3C)n2)CC(OC)C1 (racemic) [Example 2-204] | 0.029 | –
Cc1ccc(C(F)(F)F)cc1Nc1nc(C(=O)NS(=O)(=O)N2CCCN(C(=O)C3CCOC3)CC2)co1 (racemic) [Example 2-216] | 0.18 | –
CCCS(=O)(=O)N1CCN(S(=O)(=O)NC(=O)c2coc(Nc3cc(C(F)(F)F)ccc3C)n2)CC(F)C1 (racemic) [Example 2-222] | 0.03 | –
Cc1ccc(C(F)(F)F)cc1Nc1nc(C(=O)NS(=O)(=O)N2CCCOC(C)C2)co1 (racemic) [Example 2-230] | 0.089 | –
Cc1ccc(C(F)(F)F)cc1Nc1nc(C(=O)NS(=O)(=O)N2CCCOCC2C)co1 (racemic) [Example 2-231] | 0.089 | –
CC(=O)N(C)C1CCCN(S(=O)(=O)NC(=O)c2coc(Nc3cc(C(F)(F)F)ccc3C)n2)CC1 (racemic) [Example 2-232] | 0.03 | –
CCS(=O)(=O)N1CCCN(S(=O)(=O)NC(=O)c2coc(Nc3cc(C(F)(F)F)ccc3C)n2)C(C)C1 (racemic) [Example 2-241] | 0.037 | –
CCS(=O)(=O)N1CCN(S(=O)(=O)NC(=O)c2coc(Nc3cc(C)ccc3C)n2)CC(OC)C1 (racemic) [Example 2-252] | 0.19 | –
Cc1ccc(C(F)(F)F)cc1Nc1nc(C(=O)NS(=O)(=O)N2CCOC(C)CC2)co1 (racemic) [Example 2-262] | 0.018 | –
COC1COCCN(S(=O)(=O)NC(=O)c2coc(Nc3cc(C(C)C)ccc3C)n2)C1 (racemic) [Example 2-294] | 0.037 | –
COC1COCCN(S(=O)(=O)NC(=O)c2coc(Nc3cc(C)ccc3C(C)C)n2)C1 (racemic) [Example 2-310] | 0.098 | –
CCOC1COCCN(S(=O)(=O)NC(=O)c2coc(Nc3cc(C(F)(F)F)ccc3C)n2)C1 (racemic) [Example 2-318] | 0.077 | –
CCOC1COCCN(S(=O)(=O)NC(=O)c2coc(Nc3cc(C(C)C)ccc3C)n2)C1 (racemic) [Example 2-319] | 0.11 | –

Now from value to molecule, other results behind:

IC50 [µM] | Molecule | IC50 (IL-1β production in THP1-Null cells, PMA/LPS primed, Nigericin 7.5 μmol/L) [µM]
0.03 | Cc1ccc(C(F)(F)F)cc1Nc1nc(C(=O)NS(=O)(=O)N2CCOCC2C)co1 (racemic) [Example 2-005] | –
0.031 | CCC1CN(S(=O)(=O)NC(=O)c2coc(Nc3cc(C(F)(F)F)ccc3C)n2)CCO1 (racemic) [Example 2-006] | –
0.054 | Cc1ccc(C(F)(F)F)cc1Nc1nc(C(=O)NS(=O)(=O)N2CCOCCC2C)co1 (racemic) [Example 2-058] | –
0.094 | Cc1ccc(C(C)C)cc1Nc1nc(C(=O)NS(=O)(=O)N2CCOCC2C)co1 (racemic) [Example 2-081] | –
0.16 | COCC1CN(S(=O)(=O)NC(=O)c2coc(Nc3c(C(C)C)ccc4c3CCC4)n2)CCO1 (racemic) [Example 2-120] | –
0.035 | COC1COCCN(S(=O)(=O)NC(=O)c2coc(Nc3cc(C(F)(F)F)ccc3C(C)C)n2)C1 (racemic) [Example 2-121] | –
0.13 | Cc1ccc(C(F)(F)F)cc1Nc1nc(C(=O)NS(=O)(=O)N2CCOCC(C#N)C2)co1 (racemic) [Example 2-127] | –
0.039 | Cc1ccc(C(F)(F)F)cc1Nc1nc(C(=O)NS(=O)(=O)N2CCCC(O)CC2)co1 (racemic) [Example 2-156] | –
0.038 | Cc1ccc(C(F)(F)F)cc1Nc1nc(C(=O)NS(=O)(=O)N2CCCC(C(=O)N(C)C)CC2)co1 (racemic) [Example 2-157] | –
0.038 | COC1COCCN(S(=O)(=O)NC(=O)c2coc(Nc3cc(C(C)(F)F)ccc3C)n2)C1 (racemic) [Example 2-185] | –
0.029 | Cc1ccc(C(F)(F)F)cc1Nc1nc(C(=O)NS(=O)(=O)N2CCN(S(=O)(=O)CCCF)CC(F)C2)co1 (racemic) [Example 2-198] | –
0.036 | COC1CN(S(=O)(=O)CCCF)CCN(S(=O)(=O)NC(=O)c2coc(Nc3cc(C(F)(F)F)ccc3C)n2)C1 (racemic) [Example 2-205] | –
0.067 | Cc1ccc(C(F)(F)F)cc1Nc1nc(C(=O)NS(=O)(=O)N2CCCN(S(=O)(=O)C3CCOC3)CC2)co1 (racemic) [Example 2-220] | –
0.097 | CC(C)c1ccc(C(F)F)cc1Nc1nc(C(=O)NS(=O)(=O)N2CCCN(S(=O)(=O)C3CCOC3)CC2)co1 (racemic) [Example 2-226] | –
0.045 | CCS(=O)(=O)N1CCCN(S(=O)(=O)NC(=O)c2coc(Nc3cc(C(F)(F)F)ccc3C)n2)CC1C (racemic) [Example 2-242] | –
0.051 | COC1COCCN(S(=O)(=O)NC(=O)c2coc(Nc3cc(C(F)(F)F)c(F)cc3C)n2)C1 (racemic) [Example 2-244] | –
0.067 | CCN(C)C(=O)C1CCCN(S(=O)(=O)NC(=O)c2coc(Nc3cc(C(F)(F)F)ccc3C)n2)CC1 (racemic) [Example 2-246] | –
0.032 | CCCS(=O)(=O)N1CCN(S(=O)(=O)NC(=O)c2coc(Nc3cc(C)ccc3C)n2)CC(OC)C1 (racemic) [Example 2-251] | –
0.087 | Cc1ccc(C(F)(F)F)cc1Nc1nc(C(=O)NS(=O)(=O)N2CCCC(C)(C(=O)N(C)C)CC2)co1 (racemic) [Example 2-259] | –
0.024 | Cc1ccc(C(F)(F)F)cc1Nc1nc(C(=O)NS(=O)(=O)N2CCCC(n3cccn3)CC2)co1 (racemic) [Example 2-273] | –
0.087 | Cc1cc(C)n(C2CCCN(S(=O)(=O)NC(=O)c3coc(Nc4cc(C(F)(F)F)ccc4C)n3)CC2)n1 (racemic) [Example 2-297] | –
